According to US20240269304A1, “BCL-XL INHIBITOR ANTIBODY-DRUG CONJUGATES AND METHODS OF USE THEREOF” (Novartis AG, priority 2020, published 2024):
Read-outs that look alike come from different tables or passages of the source.

How the values were obtained:
Format in all cases: cell-based
DND-41 cells = test: CellTiterGlo (CTG) cell viability, 72 h, DND-41 (Example 8)
Summary of the method: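 DND-41 cells in RPMI with 10% heat-inactivated FBS exposed to payloads or ADCs for 3 days at 37° C/5% CO2, in triplicate. Viability measured as cellular ATP by CellTiterGlo luminescence; IC50 from four-parameter fit.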

ncih1436 = test: In vitro ADC activity with combination partners, CellTiter-Glo 5 days, ncih1436 (Example 13); details: single agent
Protocol: (§1) Antibody drug conjugates (ADCs) targeting IgG, B7H3, CD56, DLK1, DLL3, EpCAM, and SEZ6 were tested against cancer cell lines obtained from ATCC (American Type Culture Collection) or from other commercial cell line vendors (cor1279, ncih1436, ncih146, ncih211, ncih524). The cells were cultured in media that is optimal for their growth at 5% CO2, 37° C. in a tissue culture incubator. Prior to seeding for the proliferation assay, the cells were split at least 2 days before the assay to ensure optimal growth density. On the day of seeding, cells were lifted off tissue culture flasks using 0.25% trypsin. Cell viability and cell density were determined using a cell counter (Vi-Cell XR Cell Viability Analyzer, Beckman Coulter). Cells with higher than 85% viability were seeded in white clear bottom 384-well plates (Greiner cat #781098) at a density of 1000 cells per well in 50 μL of standard growth media. Plates were incubated at 37° C. overnight in a tissue culture incubator.
(§2) The ADCs were prepared in standard phosphate buffered solution to desired concentrations. A series of 10 dilutions were made for each ADC. The prepared drug treatments were then added to the cells resulting in final concentrations of 300 nM to 0.015 nM. Combination partners (Venetoclax and Topotecan) were added at fixed concentrations. Acoustic transfer devices (Echo525, Echo550, Beckman Coulter) were used to add the ADCs or combination partners to the cells. Each treatment was tested in triplicate assay plates. Plates were incubated at 37° C. overnight or for 5 days in a tissue culture incubator. The ability of the ADCs to inhibit cell proliferation and survival was assessed using the Promega CellTiter-Glo® proliferation assay. Plates were incubated at room temperature for 20 minutes to stabilize luminescent signals prior to reading using a multimode plate reader (Pherastar, BMG). Luminescent counts of untreated cells were taken the day after seeding (Day 0 readings), and after 5 days of treatment (Day 5 readings). The Day 5 readings of the untreated cells were compared to the Day 0 readings. Assays with at least one cell doubling during the incubation period were considered valid. To evaluate the effect of the drug treatments, luminescent counts from wells containing untreated cells (100% viability) were used to normalize treated samples. The concentrations of treatment required to inhibit 50% of cell growth or survival ([…]) were calculated using a four parameter logistic regression equation.

ncih146 = test: In vitro ADC activity with combination partners, CellTiter-Glo 5 days, ncih146 (Example 13); details: single agent
Protocol: as §1, §2

corl279 = test: In vitro ADC activity with combination partners (Venetoclax, Topotecan), CellTiter-Glo 5 days, corl279 (Example 13); details: single agent
Protocol: as §1, §2

HPB-ALL (T-ALL) = test: CellTiter-Glo viability 72 h, single agent or 1/1 combination with vincristine, ABT-199 or Compound A2, HPB-ALL (Example 9); details: Homo sapiens, HPBALL, single agent or 1/1 combination as labelled
Protocol: Cell lines were cultured in the media described above at 37° C. in a humidified atmosphere containing 5% CO2. Cells were seeded in 96 well clear bottom plates (96 well clear-bottom, white, Corning reference 3903) and exposed to the payloads or ADCs at single agents or in 1/1 combinations with vincristine, ABT-199 or compound A2 for 72 h (serially diluted; 9 concentrations each, triplicates). Effects of payloads or ADCs on cell viability were assessed after 3 days of incubation at 37° C./5% CO2 by quantification of cellular ATP levels using CellTiter-Glo reagent (Promega Ref: G7571) at 75 μL reagent/well. All the conditions were tested in triplicates. Luminescence was quantified on a multipurpose plate reader. IC50s were calculated using standard four-parametric curve fitting. […] Each experiment was performed at least twice, with results being reproducible.

ALL-SIL cells = test: CellTiterGlo (CTG) cell viability, 72 h, ALL-SIL (Example 8)
Summary of the method: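 In RPMI with 20% FBS, ALL-SIL cells were exposed for 72 h to serially diluted payloads or ADCs (9 concentrations, triplicate) at 37 °C/5% CO2. Viability was measured as cellular ATP by CellTiterGlo luminescence, with IC50 from four-parameter fit.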

Work on `Cc1c(Nc2nc3ccccc3s2)nnc2c1CCCN2c1ccc(-c2cnn(C[C@]34C[C@]5(C)C[C@](C)(C3)C[C@@](OCCN3CCCC3)(C5)C4)c2C)c(C(=O)O)n1` [P21, 6-[3-(1,3-benzothiazol-2-ylamino)-4-methyl-6,7-dihydro-5H-pyrido[2,3-c]pyridazin-8-yl]-3-[1-[[3,5-dimethyl-7-(2-pyrrolidin-1-ylethoxy)-1-adamantyl]methyl]-5-methyl-pyrazol-4-yl]pyridine-2-carboxylic acid] yielded an IC50 (DND-41 cells; DND41, experiment n1, read-out: DND41 CTG 72 h IC50 nM n1) of 0.31 nM, an IC50 (DND-41 cells; DND41, experiment n2, read-out: DND41 CTG 72 h IC50 nM n2) of 0.2 nM and an IC50 (DND-41 cells; DND41, mean of n1 and n2, read-out: DND41 CTG 72 h IC50 nM Mean of n1 and n2) of 0.26 nM. The GI50 (ncih1436; Homo sapiens, NCI-H1436, 120 h) was 0.000508 µM, the “GI Amax ncih1436” value (ncih1436) was −94.5 and the GI50 (ncih146; Homo sapiens, NCI-H146, 120 h) was 0.000508 µM. For the same compound, the “GI Amax ncih146” value (ncih146) was −98.38, the GI50 (corl279; Homo sapiens, COR-L279, 120 h) was 0.00242 µM and the “GI Amax corl279” value (corl279) was −88.27. For the same compound, the IC50 (HPB-ALL (T-ALL); mean, read-out: HPB-ALL (T-ALL) IC50 mean) was 1.01 nM, the IC50 (HPB-ALL (T-ALL); n1, read-out: HPB-ALL (T-ALL) IC50 n1) was 1.33 nM and the IC50 (HPB-ALL (T-ALL); n2, read-out: HPB-ALL (T-ALL) IC50 n2) was 0.69 nM. The IC50 (ALL-SIL cells; experiment n1, read-out: ALLSIL CTG 72 h IC50 nM n1) was 0.02 nM, the IC50 (ALL-SIL cells; experiment n2, read-out: ALLSIL CTG 72 h IC50 nM n2) was 0.05 nM and the IC50 (ALL-SIL cells; mean of n1 and n2, read-out: ALLSIL CTG 72 h IC50 nM Mean of n1 and n2) was 0.04 nM.
